The nature of series [1]: Solubility of peptides in sheep serum. It is filed as physicochemical.
Another series concerns P. aeruginosa H374. It counts as cell-based, Pseudomonas aeruginosa. The note with it: for MIC Cm-comb.: MIC of chloramphenicol with peptide at ¼ MIC; for MIC Nal-comb.: MIC of nalidixic acid with peptide at ¼ MIC; for FIC Index: 0.5 or less = synergy. Put shortly: (§1)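 FIC index, computed as 0.25 plus the ratio of combination to single-agent antibiotic MIC, defines synergy when 0.5 or below. Peptide fixed at one quarter MIC while chloramphenicol or nalidixic acid was serially diluted two-fold; antibiotic-alone MICs served as baselines.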

Series [2] in a line: in vitro. It is filed as cell-based, human. Particulars: human, human red blood cells.
For the next series, the system named is Pseudomonas aeruginosa. Put plainly: Serum inactivation of peptides, serum MIC. Particulars: for MIC 30 min treatment: sheep serum 37° C. 30 minutes; for MIC 2 hr treatment: sheep serum 37° C. 2 hours. It counts as cell-based. As to the method:
Subsequently, the serum MICs against Pseudomonas aeruginosa were conducted to determine extent of serum inactivation of the peptides.

The next series deals with P. aeruginosa H774. It is filed as cell-based, Pseudomonas aeruginosa. Particulars: P. aeruginosa H744; nalidixic acid + peptide at ¼ MIC; 0.5 or less = synergy. In a few lines:
as §1

A further series has as its system P. aeruginosa. It is filed as cell-based, Pseudomonas aeruginosa. The note with it: P. aeruginosa H744; MIC of nalidixic acid with peptide at ¼ MIC. In a few lines: as §1
For series [3], the system named is Stapholococcus aureus ATCC 25923. Put plainly: Antimicrobial assay I, modified protocol (tryptic soy broth), MBC. Particulars: minimum bactericidal concentration, Table 4.
Another series concerns cancer cell lines. Put plainly: Anti-cancer assays, MTT, summary over the cancer cell lines. It is filed as cell-based. The note with it: X = preferred.
The nature of series [4]: in vitro. Particulars: human, WI38 normal lung fibroblast cells.
Description: Viability of cells is determined by the dye response. In the following procedure, approximately 1.5×10^4 cells per well were added and viability was determined with the cells in a semi-confluent state. The assay was performed in a 96-well microtiter plate. After addition of peptide, the plate was set for 24 hours. MTT (5 mg/ml in phenol red-free RPMI-1640, 20 μl) was added to each well including positive control wells untreated with peptide. The plate was incubated at 37° C. for 4 hours. The liquid contents of each well was removed, and isopropanol with 0.1 M HCl (100 μl) was added to each well. The plate was sealed with parafilm to prevent evaporation of the isopropanol. The plate is allowed to rest for 5-10 minutes in order to solubilize the precipitate. Purified water (100 μl) was added to each well. Absorbance was determined with an ELISA Reader instrument. Color intensity at 540 nm is proportional to viability of cells.
WI38 (ATCC No. CCL75) is a normal fibroblast line of lung diploid cells, MCF7 (ATCC No. HTB22) is a breast adenocarcinoma tumor cell line, SW480 (ATCC No. CCL228) is a colon adenocarcinoma tumor cell line, BMKC is a cloned melanoma line derived from Bowes melanoma line HMCB (ATCC No. CRL9607), H1299 (ATCC No. CRL5803) is a lung large cell carcinoma tumor line, HeLaS3 (ATCC No. CCL2.2) is a cervical epitheleal carcinoma tumor cell line, and PC3 (ATCC No. CRL1435) is a prostate adenocarcinoma tumor cell line.
Series [5] concerns Escherichia coli ATCC 25922. The series is described as follows: Antimicrobial assay I, modified protocol (tryptic soy broth), MBC. Particulars: minimum bactericidal concentration, Table 4.
Series [6] relates to human leukocyte (WBC) cells. Put plainly: Stimulation and proliferation of leukocytes, Alamar Blue. It counts as cell-based. Particulars: 48 hours. Background: Alamar Blue is a resazurin reagent that responds to reducing activity.
The test system of series [7] is Pseudomonas aeruginosa ATCC 27853. Put plainly: Antimicrobial assay I, modified protocol (tryptic soy broth), MBC. Particulars: minimum bactericidal concentration, Table 4.
Series [8] deals with human red blood cells (RBC). The series is described as follows: in vitro. It is filed as cell-based. The note with it: human red blood cells.
For series [9], the system named is human fibroblast cells (WI38). Put plainly: Stimulation and proliferation of fibroblasts, CyQuant. It is filed as cell-based. The note with it: for Peptide treated cell activity Stimulation relative to control: 48 hrs, 2.0% FBS.
Description: Procedure: Different cell lines were maintained with different medium according to the ATCC. […] The cell suspension was centrifuged for 10 minutes at 100 rpm. The supernatant was removed and discarded without disturbing the cell pellet. A concentrated cell suspension was prepared in 1.0 ml of medium to obtain a density of about 10^5 to 10^6 cells/ml. The actual cell density was determined by counting the cells using a hemocytometer with the Trypan Blue method. Cell numbers were adjusted to obtain equal number of cells per 200 μl volume. Cells were plated with 0% FBS, 2% FBS, 3% FBS and 5% FBS. The plates were incubated at 37° C. for a time sufficient to allow the cells to attach. For long-term proliferation studies, 100 μl of medium was removed from each well each day and replaced with fresh medium.
At the desired time, the medium was removed from the adherent cells in a 96 well plate. These cells were already treated with test agents. The cells were frozen in the plate at −70° C. for 30 minutes. The cells were thawed at room temperature. CyQuant GR dry/Cell Lysis Buffer (200 μl) was added to each sample cell. The cells were incubated at room temperature for 15 minutes while protected from the light. Fluorescence was measured using fmax at 485-538 nm.
The above CyQuant protocol was used to examine possible peptide stimulation and/or proliferation of fibroblasts. […] This is shown by the addition of Fetal Bovine Serum (FBS) to the medium. […] Control cells and peptide treated cells are with medium and FBS as indicated.
The test system of another series is fungal. The series is described as follows: Presently preferred antifungal peptides, selected from the MIC/MBC data. It counts as cell-based. Particulars: X = preferred. From the text:
The peptide's “length” is the number of amino acid residues in the sequence.

Series [10] concerns Candida albicans ATCC 10231. Put plainly: Antimicrobial assay I, modified protocol (tryptic soy broth), MFC. The note with it: minimum fungicidal concentration, Table 4.
Series [11] in a line: Synergy of Shiva-1 and lysozyme, percent viability. It is filed as cell-based, Pseudomonas aeruginosa. Particulars: Pseudomonas aeruginosa. As to the method:
The percent viability of Pseudomonas aeruginosa was determined relative to blank controls.

Series [12] in a line: Synergy of Shiva-1 and lysozyme, percent viability. It is filed as cell-based, Staphylococcus intermedius. How it is done: (§2) The percent viability of gram positive S. intermedius 19930, S. intermedius 20034, and S. aureus was determined relative to blank controls.
Series [13] is described as follows: Synergy of Shiva-1 and lysozyme, percent viability. It is filed as cell-based, Staphylococcus aureus. Particulars: S. aureus. How it is done:
as §2

A further series deals with WI38. Particulars: MTT, 24 hours with peptide; normal fibroblast line.
Another series has as its system BMKC. Put plainly: Anti-cancer assay, MTT, LD50. It counts as cell-based. The note with it: BMKC cloned melanoma line, 24 hours with peptide. From the text:
(§3) Numbers are LD50 values (μg/mL).

In the next series the test system is MCF7. Put plainly: Anti-cancer assay, MTT, LD50. Particulars: MCF7 breast adenocarcinoma line, MTT, 24 hours with peptide. It counts as cell-based.
Excerpt: as §3

A further series has as its system PC3. Put plainly: Anti-cancer assay, MTT, LD50. It is filed as cell-based. The note with it: 24 hours with peptide, prostate adenocarcinoma.
Excerpt: as §3

The test system of another series is SW480. Put plainly: Anti-cancer assay, MTT, LD50. It counts as cell-based. Particulars: SW480 colon adenocarcinoma line, 24 hours with peptide.
Excerpt: as §3

In another series the test system is HeLaS3. The series is described as follows: Anti-cancer assay, MTT, LD50. It is filed as cell-based. The note with it: 24 hours with peptide, cervical carcinoma.
Excerpt: as §3

For the next series, the system named is H1299. Put plainly: Anti-cancer assay, MTT, LD50. It is filed as cell-based. The note with it: 24 hours with peptide, lung large cell carcinoma.
Excerpt: as §3

Setting [14] is: chloramphenicol + peptide at ¼ MIC.
Setting [15] is: nalidixic acid + peptide at ¼ MIC, FIC=0.25+MIC comb/MIC alone.
The mark [16] stands for this setting: pH 7, hemolytic assay, concentration at 50% hemolysis, 1 hour at 37° C., read-out: LD50.

Like-named read-outs stand apart in the source and are kept apart here. No end group written: not given here.

One may read the Solubility as the dissolved amount per volume that the medium holds. On to VALALKALKKALKKLKKALKKAL-OH [P508], for which the Solubility entry is “Soluble” in series [1] (sheep serum, […], 70% serum) and not below 1280 µg/mL in [1] (sheep, 70% sheep serum). In addition, the “MIC Cm-comb.” value in the series with P. aeruginosa H374 was 8 µg/mL. The “MIC Nal-comb.” value in the series on P. aeruginosa H374 turned out to be 5000 µg/mL. Also, the results for the “FIC Index” value in the series on P. aeruginosa H374 (setting [14]) and in the series on P. aeruginosa H374 (setting [15]) were 0.75 and 1.25, respectively. For the same substance, the HC50 at 1 h in “in vitro [2]” (setting [16]) stood at 70 µg/mL. Besides, the figures for the “MIC 30 min treatment” value against Pseudomonas aeruginosa (first of two columns) and in the series on Pseudomonas aeruginosa (second of two columns) were 40 µg/mL and 20 µg/mL, respectively. In addition, the “MIC 2 hr treatment” value against Pseudomonas aeruginosa (first of two columns) is 40 µg/mL; against Pseudomonas aeruginosa (second of two columns), 20 µg/mL. The “change of activity by exposure to serum (serum MIC against Pseudomonas aeruginosa)” value in the series on Pseudomonas aeruginosa (sheep serum, […], 37° C. for 30 minutes or 2 hours) is “only modestly decreased”.

Take FAKKLAKKLKKLAKKLAK-NH2 [P69]: the Solubility entry in series [1] (sheep serum, […], 70% serum) is listed as “Precipitated”. Besides, the “MIC Cm-comb.” value with P. aeruginosa H374 came out at 8 µg/mL. For the same substance, the results for the “MIC Nal-comb.” value in the series with P. aeruginosa H374 and in the series on P. aeruginosa were 2500 µg/mL and 312 µg/mL, respectively. Moreover, the “FIC Index” value with P. aeruginosa H374 (setting [14]), in the series on P. aeruginosa H374 (setting [15]) and in the series with P. aeruginosa H774 was 0.75 in each case. Also, the “MIC 30 min treatment” value with Pseudomonas aeruginosa (first of two columns) and against Pseudomonas aeruginosa (second of two columns) was 20 µg/mL each time. Besides, the “MIC 2 hr treatment” value against Pseudomonas aeruginosa (first of two columns) and against Pseudomonas aeruginosa (second of two columns) was 20 µg/mL each time.

Broadly, the CC50 is the concentration that lowers cell viability or growth by half. “FALALKALKKALKKLKKALKKAL-NH2 [compound 2]”: in [3], the “MBC S. aur A.25923” value amounted to 25 µg/mL. Besides, the “Anti-cancer (preferred peptide)” value with cancer cell lines is on record as “X (Preferred anticancer peptides can be selected as having LD50 values of less than or equal to about 25 μg/ml)”. Further, the CC50 at 24 h in the series “in vitro [4]” (Peptide toxicity WI-38 LD/50, human fibroblast cells) is 66 µg/mL; in the series “in vitro [4]” (WI-38 LD50, Table 26, valine substitution) it was 66 µg/mL. In series [5], the “MBC E. coli A.25922” value was 25 µg/mL. Further, the “Peptide treated cell activity Percent stimulation relative to control” value in series [6] (0.1 ug/ml) was 117%; in [6] (1 ug/ml), 118%; in series [6] (10 ug/ml), 119%; in series [6] (100 ug/ml), 121%; in [6] (500 ug/ml), 119%. Moreover, the “MBC P. aerug A.27853” value in series [7] came to 10 µg/mL. For the same substance, the HC50 at 1 h in “in vitro [2]” (pH 7, Table 26, valine substitution, read-out: Hemolysis RBC LD50) came to 12 µg/mL. In addition, the “Peptide toxicity RBC LD/50” value in series [8] was 30. Besides, the “percent cell viability above or below control” value was −27% in series [9] (0.1 μg/ml, 0% FBS); 26% in series [9] (0.1 μg/ml, […] FBS); −3% in [9] (1 μg/ml, 0% FBS); 57% in [9] (1 μg/ml, […] FBS); 27% in series [9] (10 μg/ml, 0% FBS); 23% in [9] (10 μg/ml, […] FBS). For the same substance, the “percent cell viability above or below control” value is given as −82% in series [9] (100 μg/ml, 0% FBS) and −66% in series [9] (100 μg/ml, […] FBS). The “Peptide treated cell activity Stimulation relative to control” value in [9] (0.1 μg/ml) was determined as 125%; in series [9] (1 μg/ml) it was 156%; in series [9] (10 μg/ml) it was 122%; in series [9] (100 μg/ml), 35%. In addition, in the series with fungal, the “Anti-fungal (preferred peptide)” value is given as “X (Preferred antifungal peptides can be selected as having MIC or MBC values of less than or equal to about 25 μg/ml)”. Further, the “MFC Candida A.10231” value in series [10] is more than 50 µg/mL.

For orientation: viability means a read-out of living cells in per cent, often relative to untreated cells. Turning to “MPRWRLFRRIDRVGKQIKQGILRAGPAIALVGDARAVG [Shiva-1]”, in series [11], the viability at 0.01 µM is 100%, the viability at 0.1 µM was 69.6%, the viability at 1 µM came to 37.9% and the viability at 5 µM turned out to be 1.5%. The viability at 25 µM in series [11] is 0%. Also, in series [12] (S. intermedius 19930), the viability at 0.01 µM amounted to 100%, the viability at 0.1 µM came to 81.8%, the viability at 0.5 µM turned out to be 65% and the viability at 1 µM was 42.1%. Further, in [12] (S. intermedius 19930), the viability at 5 µM was found to be 35.2%, the viability at 10 µM was 1.2% and the viability at 50 µM was determined as 0%. In [12] (S. intermedius 20034), the viability at 0.01 µM came to 100%, the viability at 0.5 µM was 80%, the viability at 5 µM worked out at 4.1% and the viability at 50 µM was 0%. For the same substance, in series [13], the viability at 0.01 µM was found to be 100%, the viability at 0.1 µM amounted to 100%, the viability at 0.5 µM amounted to 50.1% and the viability at 1 µM came out at 24.4%. Also, in [13], the viability at 5 µM is 15.9%, the viability at 10 µM amounted to 4.5% and the viability at 50 µM turned out to be 1.6%.

Consider FALALKALKKLLKKLKKLAKKAL-NH2 [P24], for which, in series [1] (sheep serum, […], 70% serum), the Solubility result is recorded as “Precipitated”. The substance further came in with a cytotoxic concentration (CC50) at 24 h in the series “in vitro [4]” (LD50 WI38, WI38 normal lung fibroblast line, MTT, 24 hours with peptide) of 55 µg/mL. The “MIC Cm-comb.” value with P. aeruginosa H374 came to 16 µg/mL. Also, the “MIC Nal-comb.” value in the series on P. aeruginosa H374 was found to be 5000 µg/mL; in the series with P. aeruginosa it was 624 µg/mL. Further, the “FIC Index” value in the series on P. aeruginosa H374 (setting [14]), in the series on P. aeruginosa H374 (setting [15]) and with P. aeruginosa H774 was 1.25 in each case. Also, the HC50 at 1 h in the series “in vitro [2]” (setting [16]) turned out to be 10 µg/mL. Also, in the series on WI38, the “WI38 LD50” value turned out to be 55 µg/mL. Also, the “MIC 30 min treatment” value against Pseudomonas aeruginosa (first of two columns) was determined as 40 µg/mL; against Pseudomonas aeruginosa (second of two columns), 20 µg/mL. The “MIC 2 hr treatment” value in the series with Pseudomonas aeruginosa (first of two columns) and in the series on Pseudomonas aeruginosa (second of two columns) was 20 µg/mL each time. Further, in the series on BMKC, the “LD50 BMKC” value was found to be 85 µg/mL. Besides, the “LD50 MCF7” value with MCF7 is 26 µg/mL. The “PC3 LD50” value with PC3 came to 38 µg/mL. Further, the “LD50 SW480” value with SW480 worked out at 38 µg/mL. Besides, the “HeLaS3 LD50” value in the series on HeLaS3 came out at 145 µg/mL. For the same substance, the “H1299 LD50” value in the series with H1299 worked out at 72 µg/mL.

The values above are taken from patent US20050209157A1, “Short bioactive peptides and methods for their use” (priority 2001, published 2005).
